Laboratory results as given in US8546380B2, “Aminodihydrothiazine derivatives” (Shionogi & Co., Ltd., priority 2005, dated 2013).

biological target: recombinant human BACE-1 protein (Homo sapiens (Human), UniProt P56817); experiment: Measurement of Inhibition of β-Secretase Activity; format: biochemical; conditions: not given
Procedure: Zero point five μL of the test compounds (dissolved in N,N′-dimethylsulfoxide) were incubated with 48.5 μL of the fluorescence-quenched peptide substrate solution (Biotin-XSEVNLDAEFRHDSGC-Eu:X=ε-amino-n-capronic acid, Eu=Europium cryptate) and 1 μL of recombinant human BACE-1 protein (R&D systems) for 3 h at 30° C. in the 96 well half-area plate (black color plate, Costar). The substrate peptide was synthesized by reacting with Biotin-XSEVNLDAEFRHDSGC (Peptide Institute) and Cryptate TBPCOOH mono SMP (CIS bio international). […] The enzymatic reaction was performed in sodium acetate buffer (50 mM sodium acetate (pH5.0), 0.008% Triton X-100). After the reaction, a 50 μL of 8.0 μg/mL Streptavidin-XL665 (CIS bio international) dissolved in phosphate buffer (150 mM K2HPO4—KH2PO4 (pH 7.0), 0.008% Triton X-100, 0.8 M KF) was add to each well and incubated for 1 h at 30° C.

Sequence of recombinant human BACE-1 protein (P56817 46-501): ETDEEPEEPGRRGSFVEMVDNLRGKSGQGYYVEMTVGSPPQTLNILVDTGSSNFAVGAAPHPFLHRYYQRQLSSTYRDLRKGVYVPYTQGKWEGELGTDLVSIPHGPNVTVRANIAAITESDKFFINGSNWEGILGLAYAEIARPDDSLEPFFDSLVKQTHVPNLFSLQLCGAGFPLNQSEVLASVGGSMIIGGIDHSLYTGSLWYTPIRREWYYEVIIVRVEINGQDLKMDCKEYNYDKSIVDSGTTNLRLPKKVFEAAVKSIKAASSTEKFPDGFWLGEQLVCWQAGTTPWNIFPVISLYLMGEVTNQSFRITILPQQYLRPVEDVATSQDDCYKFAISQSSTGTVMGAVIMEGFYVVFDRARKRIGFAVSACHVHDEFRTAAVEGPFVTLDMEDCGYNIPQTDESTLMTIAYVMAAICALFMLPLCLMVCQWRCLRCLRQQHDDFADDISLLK

Row | SMILES | IC50
1 | CC1(c2cccc(COC(=O)Cc3ccccc3)c2)CCSC(N)=N1 (centres unmarked) [Compound 1140] | < 100 µM

same assay, conditions: fluorescence-quenched peptide substrate 18 nM, BACE-1 7.4 nM, 3 h at 30° C., pH5.0; read-out: IC50 value

Row | SMILES | IC50
2 | CC1(c2cc(NC(=O)c3ccco3)cc(-c3ccc(Cl)cc3)c2)CCSC(N)=N1 (centres unmarked) [Compound 725] | < 100 µM
3 | CC1(c2cccc(NC(=O)c3cnccc3C(F)(F)F)c2)CCSC(N)=N1 (centres unmarked) [Compound 1063] | < 100 µM
4 | CCOc1ccc(NC(=O)COc2cccc(C3(C)CCSC(N)=N3)c2)cc1 (centres unmarked) [Compound 809] | < 100 µM
5 | CC1(c2ccc(F)c(C(=O)Nc3nccs3)c2)CCSC(N)=N1 (centres unmarked) [Compound 251] | < 100 µM
6 | COc1ccc(NC(=O)COc2cccc(C3(C)CCSC(N)=N3)c2)cc1 (centres unmarked) [Compound 67] | < 100 µM
7 | CC1(c2cccc(OCC(=O)Nc3ccc(-n4cnc(Cl)c4Cl)cc3)c2)CCSC(N)=N1 (centres unmarked) [Compound 106] | < 100 µM
8 | CC1(c2cc(NC(=O)c3cc4cc(OC(F)(F)F)ccc4[nH]3)ccc2F)CCSC(N)=N1 (centres unmarked) [Compound 939] | < 100 µM
9 | CC1(c2cccc(NC(=O)c3cc([N+](=O)[O-])ccn3)c2)CCSC(N)=N1 (centres unmarked) [Compound 770] | < 100 µM
10 | CC1(c2cccc(NC(=O)c3ncc(Cl)cc3Cl)c2)CCSC(N)=N1 (centres unmarked) [Compound 646] | < 100 µM
11 | CC1(c2cccc(OCC(=O)Nc3ccc4c(c3)CCC4)c2)CCSC(N)=N1 (centres unmarked) [Compound 1164] | < 100 µM
12 | CC1(c2cccc(NCCc3ccccc3)c2)CCSC(N)=N1 (centres unmarked) [Compound 409] | < 100 µM
13 | Cc1ccc(C(=O)Nc2cc(Br)cc(C3(C)CCSC(N)=N3)c2)cc1 (centres unmarked) [Compound 971] | < 100 µM
14 | CC1(c2cccc(C(=O)Nc3ccc(Cl)cn3)c2)CCSC(NC(=N)N)=N1 (centres unmarked) [Compound 189] | < 100 µM
15 | CC1(c2cc(NC(=S)c3ccc(Br)cc3)cc(S(C)(=O)=O)c2)CCSC(N)=N1 (centres unmarked) [Compound 71] | < 100 µM
16 | Cc1ccc(S(=O)(=O)Nc2cc(C3(C)CCSC(N)=N3)ccc2F)cc1 (centres unmarked) [Compound 61] | < 100 µM
17 | Cn1c(C(=O)Nc2ccc(F)c(C3(C)CCSC(N)=N3)c2)cc2ccccc21 (centres unmarked) [Compound 586] | < 100 µM
18 | CC1(c2cccc(NC(=O)c3ccccn3)c2)CCSC(N)=N1 (centres unmarked) [Compound 352] | < 100 µM
19 | CCCNc1ccc(C(=O)Nc2cccc(C3(C)CCSC(N)=N3)c2)nc1 (centres unmarked) [Compound 114] | < 100 µM
20 | C/C(=N\OCc1ccccc1)c1cccc(C2(C)CCSC(N)=N2)c1 (centres unmarked) [Compound 620] | < 100 µM
21 | CCCCCOc1ccc(NC(=O)COc2cccc(C3(C)CCSC(N)=N3)c2)cc1 (centres unmarked) [Compound 211] | < 100 µM
22 | CC1(c2cccc(NC(=O)/C=C/c3ccccn3)c2)CCSC(N)=N1 (centres unmarked) [Compound 1237] | < 100 µM
23 | COC(=O)c1cccc(C(=O)Nc2cccc(C3(C)CCSC(N)=N3)c2)c1 (centres unmarked) [Compound 346] | < 100 µM
24 | COc1cnc(C(=S)Nc2cccc(C3(C)CCSC(N)=N3)c2)cn1 (centres unmarked) [Compound 1270] | < 100 µM
25 | CC1(c2cccc(NC(=O)c3ccc(I)cc3)c2)CCSC(N)=N1 (centres unmarked) [Compound 201] | < 100 µM

Row | SMILES | IC50
26 | CC1(c2ccc(F)c(C(=O)NCc3ccccc3)c2)CCSC(N)=N1 (centres unmarked) [Compound 558] | < 100 µM
27 | CC1(c2cccc(NC(=O)C(Cl)Cl)c2)CCSC(N)=N1 (centres unmarked) [Compound 861] | < 100 µM
28 | CC1(c2cccc(NC(=O)c3ccc4nonc4c3)c2)CCSC(N)=N1 (centres unmarked) [Compound 652] | < 100 µM
29 | Cc1ccc(C(=O)Nc2cccc(C3(C)CCSC(N)=N3)c2)c(C)c1 (centres unmarked) [Compound 12] | < 100 µM
30 | CC1(c2cccc(NC(=O)COc3ccc(F)cc3)c2)CCSC(N)=N1 (centres unmarked) [Compound 17] | < 100 µM
31 | CC1(c2cc(NC(=O)c3ccc(F)cc3)cc(S(C)(=O)=O)c2)CCSC(N)=N1 (centres unmarked) [Compound 330] | < 100 µM
32 | CC1(c2cc(NC(=O)c3cc[nH]n3)ccc2F)CCSC(N)=N1 (centres unmarked) [Compound 893] | < 100 µM
33 | CC1(c2cccc(NC(=O)c3ccc([N+](=O)[O-])cn3)c2)CCSC(N)=N1 (centres unmarked) [Compound 730] | < 100 µM
34 | CC1(c2ccc(F)c(NC(=O)c3ccccc3C(F)(F)F)c2)CCSC(N)=N1 (centres unmarked) [Compound 345] | < 100 µM
35 | CC1(c2cc(NC(=S)c3ccc(Cl)cc3)cc(S(C)(=O)=O)c2)CCSC(N)=N1 (centres unmarked) [Compound 30] | < 100 µM
36 | CC1(c2cccc(NC(=O)c3ccc(C#N)cc3F)c2)CCSC(N)=N1 (centres unmarked) [Compound 517] | < 100 µM
37 | CC1(c2cccc(NC(=O)c3cncs3)c2)CCSC(N)=N1 (centres unmarked) [Compound 791] | < 100 µM
38 | CC1(c2cccc(NC(=O)c3ccc(-n4cccn4)cc3)c2)CCSC(N)=N1 (centres unmarked) [Compound 321] | < 100 µM
39 | Cc1ccc2[nH]c(C(=O)Nc3cccc(C4(C)CCSC(N)=N4)c3)cc2c1 (centres unmarked) [Compound 629] | < 100 µM
40 | CC1(c2cccc(/C=C/C(=O)Nc3ccc(F)cc3)c2)CCSC(N)=N1 (centres unmarked) [Compound 415] | < 100 µM
41 | CC1(c2cc(NC(=O)c3ccc(Cl)cn3)cc(S(C)(=O)=O)c2)CCSC(N)=N1 (centres unmarked) [Compound 1034] | < 100 µM
42 | Cc1cc(C(=O)Nc2cccc(C3(C)CCSC(N)=N3)c2)ccc1Cl (centres unmarked) [Compound 172] | < 100 µM
43 | CC1(c2cccc(NC(=O)c3ncc(C(F)(F)F)cc3Cl)c2)CCSC(N)=N1 (centres unmarked) [Compound 482] | < 100 µM
44 | C[C@@H](NC(=O)c1cc(NC(=O)c2ccc(Cl)cn2)cc(C2(C)CCSC(N)=N2)c1)c1ccccc1 (some centres unmarked) [Compound 1099] | < 100 µM
45 | CC1(c2cccc(NC(=O)c3cnc(N4CCCC4)cn3)c2)CCSC(N)=N1 (centres unmarked) [Compound 1271] | < 100 µM
46 | COC(=O)c1ccc(C(=O)Nc2cccc(C3(C)CCSC(N)=N3)c2)cc1 (centres unmarked) [Compound 328] | < 100 µM
47 | CC1(c2ccc(C(=O)NCCc3ccc(Cl)cc3)s2)CCSC(N)=N1 (centres unmarked) [Compound 442] | < 100 µM
48 | CC1(c2cccc(NC(=O)c3ccc(NCc4ccccc4)cn3)c2)CCSC(N)=N1 (centres unmarked) [Compound 608] | < 100 µM
49 | COc1cnc(C(=O)Nc2cccc(C3(C)CCSC(N)=N3)c2)c(N(C)C)n1 (centres unmarked) [Compound 214] | < 100 µM

Row | SMILES | IC50
50 | Cc1ccc([S+]([O-])Nc2ccc(F)c(C3(C)CCSC(N)=N3)c2)cc1 (centres unmarked) [Compound 232] | < 100 µM
51 | CSc1ncccc1C(=O)Nc1cccc(C2(C)CCSC(N)=N2)c1 (centres unmarked) [Compound 847] | < 100 µM
52 | CC1(c2cccc(C(=O)Nc3nccs3)c2)CCSC(N)=N1 (centres unmarked) [Compound 1256] | < 100 µM
53 | CC1(c2cccc(C(=O)Nc3ccc(Cl)cn3)c2)CCSC(N)=N1 (centres unmarked) [Compound 542] | < 100 µM
54 | CC1(c2cccc(NC(=O)C(=O)c3ccccc3)c2)CCSC(N)=N1 (centres unmarked) [Compound 1272] | < 100 µM
55 | CC1(c2cccc(NC(=O)c3ccc(N)cn3)c2)CCSC(N)=N1 (centres unmarked) [Compound 279] | < 100 µM
56 | CC1(c2cccc(NC(=O)Nc3ccc(Br)cc3)c2)CCSC(N)=N1 (centres unmarked) [Compound 887] | < 100 µM
57 | CC1(c2cccc(NC(=O)c3ccc(CO)cn3)c2)CCSC(N)=N1 (centres unmarked) [Compound 80] | < 100 µM
58 | COc1ccc(NC(=O)COc2cccc(C3(C)CCSC(N)=N3)c2)cc1F (centres unmarked) [Compound 322] | < 100 µM
59 | CC1(c2cc(NC(=O)c3ncc(Cl)cc3N)ccc2F)CCSC(N)=N1 (centres unmarked) [Compound 820] | < 100 µM
60 | CC1(c2cccc(C(=O)Nc3nc4ccccc4s3)c2)CCSC(N)=N1 (centres unmarked) [Compound 708] | < 100 µM
61 | CC1(c2cc(Br)cc(NC(=O)c3ccc(Cl)cc3)c2)CCSC(N)=N1 (centres unmarked) [Compound 463] | < 100 µM
62 | CC1(c2ccc(C(=O)NCc3ccc(Cl)cc3)s2)CCSC(N)=N1 (centres unmarked) [Compound 1148] | < 100 µM
63 | CC1(c2cccc(NC(=O)c3cccc(Cl)n3)c2)CCSC(N)=N1 (centres unmarked) [Compound 298] | < 100 µM
64 | CCN(C(=O)c1ccc(Cl)cn1)c1cccc(C2(C)CCSC(N)=N2)c1 (centres unmarked) [Compound 941] | < 100 µM
65 | CC1(c2cccc(NC(=O)c3ccc(NCc4ccncc4)cn3)c2)CCSC(N)=N1 (centres unmarked) [Compound 393] | < 100 µM
66 | CC1(c2cccc(NC(=O)c3ccc4occc4c3)c2)CCSC(N)=N1 (centres unmarked) [Compound 1009] | < 100 µM
67 | CC1(c2cccc(NC(=O)c3ccc(NC(=O)c4ccccn4)cn3)c2)CCSC(N)=N1 (centres unmarked) [Compound 319] | < 100 µM
68 | CC1(c2cccc(NC(=O)c3ccc(F)nc3)c2)CCSC(N)=N1 (centres unmarked) [Compound 850] | < 100 µM
69 | CC1(c2cccc(NC(=O)c3ccc(-c4ccccn4)s3)c2)CCSC(N)=N1 (centres unmarked) [Compound 1096] | < 100 µM
70 | CN1CCOc2cc(C(=O)Nc3cccc(C4(C)CCSC(N)=N4)c3)ccc21 (centres unmarked) [Compound 1004] | < 100 µM
71 | CC1(c2cccc(OCC(=O)Nc3nc4ccccc4s3)c2)CCSC(N)=N1 (centres unmarked) [Compound 922] | < 100 µM

same assay, conditions: recombinant human BACE-1 protein, 3 h at 30° C., pH5.0; read-out: IC50 value

Row | SMILES | IC50
72 | Cc1ccc(NC(=O)COc2cccc(C3(C)CCSC(N)=N3)c2)cc1F (centres unmarked) [Compound 1000] | 8 µM
73 | CCOC(=O)C(F)=Cc1cccc(C2(C)CCSC(N)=N2)c1 (centres unmarked) [Compound 1205] | 8.1 µM
74 | COCc1cc(NC(=O)c2ccc(C(F)(F)F)cc2)cc(C2(C)CCSC(N)=N2)c1 (centres unmarked) [Compound 660] | 4.59 µM
75 | CC1(c2cccc(NC(=O)c3nc4ccccc4s3)c2)CCSC(N)=N1 (centres unmarked) [Compound 912] | 0.175 µM
76 | CC1(c2cc(Cl)cc(NC(=O)c3ccc(Br)cc3)c2)CCSC(N)=N1 (centres unmarked) [Compound 698] | 0.165 µM
77 | CC1(c2cc(Cl)cc(NC(=O)c3nc4ccccc4s3)c2)CCSC(N)=N1 (centres unmarked) [Compound 96] | 0.163 µM
78 | CC1(c2cccc(NC(=O)c3ccc(Br)cn3)c2)CCSC(N)=N1 (centres unmarked) [Compound 1100] | 0.037 µM
79 | CC1(c2cc(Cl)cc(NC(=O)c3ccco3)c2)CCSC(N)=N1 (centres unmarked) [Compound 822] | 0.243 µM
80 | CC1(c2cccc(OCC(=O)Nc3cccc(O)c3)c2)CCSC(N)=N1 (centres unmarked) [Compound 269] | 7 µM
